# Tested on: cut Rose Flowers (Akito and Red One varieties)
# Conditions: several ppm in acrylic emulsion (tested 0.8 to 11.2 ppm); stored at 2° C. for one month; FIG. 1
# Method: The flowers were dipped in several emulsions that included several concentration of STS (diluted from 8 g/l by taking from 0.1 to 1.4 ml per liter), ranging from 0.8 to 11.2 ppm. A bunch of roses, flowers and leaves, was dipped in the solution at each concentration for 2 seconds three times. Each treatment included 10 flowers. After the dip process, the flowers were put on a net for 10 minutes, so that an excess solution could drain off. The flowers were kept in an impregnation box at 2° C. for one month, and then they were allocated in vases for quality and shelf life assessments. The quality and appearance of the flowers were checked every day (FIG. 1).
substance,measurement,value
silver thiosulfate,quality of the stored roses,improves the quality of the stored roses

# — patent US20090092740A1, “METHOD FOR INCREASING LONG-TERM STORAGE OF CUT FLOWERS” (GREENOY LTD., priority 2006, published 2009)
